One series has as its target D(3) dopamine receptor (Homo sapiens, UniProt P35462). In words: DRUGMATRIX: Dopamine D3 radioligand binding (ligand: [3H] Spiperone). Conditions: cho. The format is cell membranes, CHO, Membrane.
A short description of series [1]: DRUGMATRIX: GABAA, Muscimol, Central radioligand binding (ligand: [3H] Muscimol). Conditions: Not Active = under 50% inhibition at 10 µM. Format: cell membranes, Rattus norvegicus, Wistar, Brain, Membrane.
Series [2] in a line: DRUGMATRIX: GABAA, Flunitrazepam, Central radioligand binding (ligand: [3H] Flunitrazepam). Conditions: Not Active = under 50% inhibition at 10 µM. Format: cell membranes, Rattus norvegicus, Wistar, Brain, Membrane.
The nature of series [3]: DRUGMATRIX: GABAA, Chloride Channel, TBOB radioligand binding (ligand: [3H] TBOB). Conditions: Not Active = under 50% inhibition at 10 µM. Format: cell membranes, Rattus norvegicus, Wistar, Cerebral cortex, Membrane.
Series [4] is described as follows: DRUGMATRIX: Interleukin IL-1 radioligand binding (ligand: [125I] interleukin 1beta). Format: cell membranes, Membrane. Conditions: nih3t3; Not Active = under 50% inhibition at 10 µM.
Series [5] deals with Voltage-gated inwardly rectifying potassium channel KCNH2 (Homo sapiens, UniProt Q12809). Conditions: hek293.
Chain of Voltage-gated inwardly rectifying potassium channel KCNH2 (Q12809 whole entry): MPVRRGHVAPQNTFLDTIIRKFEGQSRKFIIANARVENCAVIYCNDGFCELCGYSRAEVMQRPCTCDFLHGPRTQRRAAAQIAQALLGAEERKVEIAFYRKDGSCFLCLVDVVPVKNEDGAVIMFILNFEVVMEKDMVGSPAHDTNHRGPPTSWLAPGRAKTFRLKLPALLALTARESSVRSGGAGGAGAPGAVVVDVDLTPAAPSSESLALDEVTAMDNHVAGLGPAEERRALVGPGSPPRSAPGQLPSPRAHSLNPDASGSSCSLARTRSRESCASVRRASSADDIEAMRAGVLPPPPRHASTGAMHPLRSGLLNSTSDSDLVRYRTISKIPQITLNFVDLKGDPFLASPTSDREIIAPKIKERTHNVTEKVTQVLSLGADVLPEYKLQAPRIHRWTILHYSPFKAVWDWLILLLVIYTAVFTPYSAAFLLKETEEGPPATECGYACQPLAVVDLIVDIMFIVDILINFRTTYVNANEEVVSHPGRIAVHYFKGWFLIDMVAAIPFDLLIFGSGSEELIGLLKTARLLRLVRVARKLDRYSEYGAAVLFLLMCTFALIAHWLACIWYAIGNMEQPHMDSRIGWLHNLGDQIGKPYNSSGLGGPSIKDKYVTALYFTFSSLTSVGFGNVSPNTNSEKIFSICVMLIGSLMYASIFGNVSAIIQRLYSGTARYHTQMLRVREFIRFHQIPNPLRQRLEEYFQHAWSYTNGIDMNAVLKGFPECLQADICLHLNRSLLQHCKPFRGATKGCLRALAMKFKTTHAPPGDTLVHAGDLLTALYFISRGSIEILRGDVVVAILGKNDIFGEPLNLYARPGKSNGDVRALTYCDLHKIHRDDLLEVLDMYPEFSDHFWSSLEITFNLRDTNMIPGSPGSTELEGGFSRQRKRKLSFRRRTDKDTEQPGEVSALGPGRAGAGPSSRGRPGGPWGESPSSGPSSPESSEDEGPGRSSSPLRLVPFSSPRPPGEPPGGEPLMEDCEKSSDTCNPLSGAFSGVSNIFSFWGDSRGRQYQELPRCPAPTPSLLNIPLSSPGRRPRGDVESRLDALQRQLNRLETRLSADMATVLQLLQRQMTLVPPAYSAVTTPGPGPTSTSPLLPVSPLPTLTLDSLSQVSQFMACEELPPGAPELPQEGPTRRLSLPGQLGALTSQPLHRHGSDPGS

Chain of D(3) dopamine receptor (P35462 whole entry): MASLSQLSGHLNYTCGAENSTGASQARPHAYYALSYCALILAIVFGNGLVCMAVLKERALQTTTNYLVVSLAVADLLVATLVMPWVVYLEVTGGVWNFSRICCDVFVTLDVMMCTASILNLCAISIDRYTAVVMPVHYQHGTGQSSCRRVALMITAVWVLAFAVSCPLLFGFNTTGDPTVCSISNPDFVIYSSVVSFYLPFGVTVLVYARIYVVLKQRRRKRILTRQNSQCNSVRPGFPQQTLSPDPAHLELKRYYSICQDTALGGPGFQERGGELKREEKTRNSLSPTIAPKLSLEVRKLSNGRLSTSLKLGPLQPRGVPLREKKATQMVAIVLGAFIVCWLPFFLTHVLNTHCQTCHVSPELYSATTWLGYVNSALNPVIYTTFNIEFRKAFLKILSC

Consider `COc1ccc2[nH]cc(CCNC(C)=O)c2c1` [MELATONIN], for which the IC50 result (on D(3) dopamine receptor; in series [1]; in series [2]; in series [3]; in series [4]; in series [5]) was “Not Active” in each case. For the same compound, the Ki entry in series [1], in series [2], in series [3], in series [4] and in series [5] was “Not Active” each time.
Take `NC(=O)C[S+]([O-])C(c1ccccc1)c1ccccc1` (stereo not drawn) [MODAFINIL]: the half-inhibitory concentration (IC50) result (on D(3) dopamine receptor; in series [1]; in series [2]; in series [3]; in series [4]; in series [5]) was “Not Active” in each case. Moreover, the Ki entry in series [1], in series [2], in series [3], in series [4] and in series [5] was “Not Active” in each case.
As to `O=C(O)c1cccnc1Nc1cccc(C(F)(F)F)c1` [NIFLUMIC ACID], the IC50 result (at D(3) dopamine receptor; in series [1]; in series [2]; in series [3]; in series [4]; in series [5]) was “Not Active” throughout. Also, the Ki entry in series [1], in series [2], in series [3], in series [4] and in series [5] was “Not Active” each time.
Consider `O=C(N/N=C/c1ccc([N+](=O)[O-])o1)c1cc([N+](=O)[O-])cc([N+](=O)[O-])c1O` [NIFURSOL], for which the IC50 entry (on D(3) dopamine receptor; in series [1]; in series [2]; in series [3]; in series [4]; in series [5]) was “Not Active” each time. The Ki result in series [1], in series [2], in series [3], in series [4] and in series [5] was “Not Active” in each case.
For `COC(=O)Nc1nc2ccc(C(=O)c3cccs3)cc2[nH]1` [NOCODAZOLE], the IC50 entry (at D(3) dopamine receptor; in series [1]; in series [2]; in series [3]; in series [4]; in series [5]) was “Not Active” throughout. Moreover, the Ki entry in series [1], in series [2], in series [3], in series [4] and in series [5] was “Not Active” in each case.
Take `C#CC1(O)CC[C@H]2[C@@H]3CCC4=CC(=O)CC[C@@H]4[C@H]3CC[C@@]21CC` (stereo partly drawn) [NORGESTREL]: the IC50 entry at D(3) dopamine receptor was “Not Active”; in series [1], “Not Active”; in series [2] (read-out: IC50), 2360 nM; in series [3] it was “Not Active”; in series [4], “Not Active”; in series [5] it was “Not Active”. Further, the Ki result in series [1] was “Not Active”; in series [2] (read-out: Ki) it was 1920 nM; in series [3] it was “Not Active”; in series [4] it was “Not Active”; in series [5], “Not Active”.
As for `COC(=O)Nc1nc2ccc([S+]([O-])c3ccccc3)cc2[nH]1` (stereo not drawn) [OXFENDAZOLE], the IC50 entry (on D(3) dopamine receptor; in series [1]; in series [2]; in series [3]; in series [4]; in series [5]) was “Not Active” each time. The Ki result in series [1], in series [2], in series [3], in series [4] and in series [5] was “Not Active” in each case.
For `CC(=O)O[C@H]1C(=O)[C@@]2(C)[C@H]([C@H](OC(=O)c3ccccc3)[C@]3(O)C[C@H](OC(=O)[C@H](O)[C@@H](NC(=O)c4ccccc4)c4ccccc4)C(C)=C1C3(C)C)[C@]1(OC(C)=O)CO[C@@H]1C[C@@H]2O` [PACLITAXEL], the IC50 entry (on D(3) dopamine receptor; in series [1]; in series [2]; in series [3]; in series [4]; in series [5]) was “Not Active” throughout. Also, the Ki entry in series [1], in series [2], in series [3], in series [4] and in series [5] was “Not Active” each time.
`C[n+]1ccc(-c2cc[n+](C)cc2)cc1.[Cl-].[Cl-]` [PARAQUAT DICHLORIDE]: the IC50 entry (on D(3) dopamine receptor; in series [1]; in series [2]; in series [3]; in series [4]; in series [5]) was “Not Active” each time. Moreover, the Ki result in series [1], in series [2], in series [3], in series [4] and in series [5] was “Not Active” in each case.
On to `CC(C)NCC(O)COc1cccc2[nH]ccc12` (stereo not drawn) [PINDOLOL], for which the IC50 result (on D(3) dopamine receptor; in series [1]; in series [2]; in series [3]; in series [4]; in series [5]) was “Not Active” throughout. For the same compound, the Ki result in series [1], in series [2], in series [3], in series [4] and in series [5] was “Not Active” throughout.
As to `CCn1cc(C(=O)O)c(=O)c2cnc(N3CCCC3)nc21` [PIROMIDIC ACID], the IC50 entry (at D(3) dopamine receptor; in series [1]; in series [2]; in series [3]; in series [4]; in series [5]) was “Not Active” each time. Moreover, the Ki entry in series [1], in series [2], in series [3], in series [4] and in series [5] was “Not Active” throughout.
For the compound `C[n+]1ccccc1/C=N/O.[Cl-]` [PRALIDOXIME CHLORIDE], the IC50 entry (on D(3) dopamine receptor; in series [1]; in series [2]; in series [3]; in series [4]; in series [5]) was “Not Active” each time. Moreover, the Ki entry in series [1], in series [2], in series [3], in series [4] and in series [5] was “Not Active” throughout.
Consider `C[C@]12C=CC(=O)C=C1CC[C@@H]1[C@@H]2[C@@H](O)C[C@@]2(C)[C@H]1CC[C@]2(O)C(=O)CO` [PREDNISOLONE], for which the IC50 result (on D(3) dopamine receptor; in series [1]; in series [2]; in series [3]; in series [4]; in series [5]) was “Not Active” each time. The Ki entry in series [1], in series [2], in series [3], in series [4] and in series [5] was “Not Active” in each case.
Regarding `CC(=O)[C@H]1[C@H](C#N)C[C@H]2[C@@H]3CC=C4C[C@@H](O)CC[C@]4(C)[C@H]3CC[C@@]21C` [PREGNENOLONE CARBONITRILE], the IC50 result (at D(3) dopamine receptor; in series [1]; in series [2]; in series [3]; in series [4]; in series [5]) was “Not Active” each time. Moreover, the Ki result in series [1], in series [2], in series [3], in series [4] and in series [5] was “Not Active” each time.
In the case of `CCCN(CCC)S(=O)(=O)c1ccc(C(=O)O)cc1` [PROBENECID], the IC50 result (on D(3) dopamine receptor; in series [1]; in series [2]; in series [3]; in series [4]; in series [5]) was “Not Active” throughout. The Ki entry in series [1], in series [2], in series [3], in series [4] and in series [5] was “Not Active” each time.
As for `CCCOc1ccc(C(=O)OCCN(CC)CC)cc1N` [PROPARACAINE], the IC50 result (at D(3) dopamine receptor; in series [1]; in series [2]; in series [3]; in series [4]; in series [5]) was “Not Active” throughout. The Ki entry in series [1], in series [2], in series [3], in series [4] and in series [5] was “Not Active” each time.
Consider `CC(C)c1cccc(C(C)C)c1O` [PROPOFOL], for which the IC50 result (on D(3) dopamine receptor; in series [1]; in series [2]; in series [3]; in series [4]; in series [5]) was “Not Active” each time. Moreover, the Ki result in series [1], in series [2], in series [3], in series [4] and in series [5] was “Not Active” throughout.
For the compound `C[C@@H]1O[C@@H](O[C@@H]2C=C3CC[C@@H]4[C@H](CC[C@]5(C)[C@@H](c6ccc(=O)oc6)CC[C@]45O)[C@@]3(C)CC2)[C@H](O)[C@H](O)[C@H]1O` [PROSCILLARIDIN], the IC50 result (on D(3) dopamine receptor; in series [1]; in series [2]; in series [3]; in series [4]; in series [5]) was “Not Active” throughout. Moreover, the Ki result in series [1], in series [2], in series [3], in series [4] and in series [5] was “Not Active” each time.

In general, IC50 refers to the concentration that inhibits the measured activity by half. The Ki is the equilibrium dissociation constant of an inhibitor or competing ligand from its target.

For the origin of these results see ChEMBL document CHEMBL1909046, “DrugMatrix in vitro pharmacology data”.
